Laboratory results reported in US20260042801A1, “COMPOSITIONS AND METHODS FOR DYE-BOUND CYCLIZED PEPTIDES FOR MEDICAL USE” (The Texas A&M University System, priority 2022, published 2026).

Tests used:
[1] = tested on: primary adult cortical neurons; assay: Primary adult cortical neuron culture: survival and neurite outgrowth; assay type: cell-based, mouse; conditions: adult neurons from 6-month-old mice, 2 days with 5c(i)
Description: FIGS. 3A-3C: 5c(i) augments neuritogenesis and neuron survival. Primary adult cortical neurons from 6-month-old female mice were treated with 5c(i) for 2 days. 5c(i) was added at the time of cell plating. Cells were fixed 2 days after cell plating. 3A) Graph represents mean±SEM of percent change in neurite outgrowth per cell and number of surviving neurons. Representative images of 3B) Vehicle and 3C) 5000 nM 5c(i) treated groups. Linear regression was conducted to determine statistical significance. […] Scale bar=50 μm.
For all cell culture experiments, primary neural cells were extracted from the cortices of […] mice. The extraction, purification, and separation of neurons and glia was conducted as previously before^58 covered under patent application WO2022266431, incorporated by reference herein in its entirety. Briefly, after euthanization of mice, the brains were microdissected and placed in papain filled GENTLEMACS™ (tissue dissector) C Tubes followed by cell dissociation using the GENTLEMACS™ (tissue dissector) Octo Dissociator with Heaters with heating cuffs using the GENTLEMACS™ (tissue dissector) Program 37C_ABDK_01 protocol. After protocol completion, the contents were strained through a 70 μm cell strainer, debris and red blood cells were removed, and the remaining solution was labeled with glia specific antibodies. […]

[2] = tested on: severe T8 contusion/compression SCI; assay: Preclinical SCI model: histological analysis of spinal cord; assay type: in vivo, mouse; conditions: 7 weeks post injury
Description: FIGS. 11A-11E: Histological analysis of spinal cords after 5c(i) treatment. […] 7 weeks post injury, spinal cords were sectioned sagittal to conduct histological analyses. Value of 11A) change in intensity of 5-HT, average fluorescence intensity of 11B) IBA1 and 11C) CD68, and number of 11D) CD68+ and 11E) SOX9+ cells in relation to distance from injury (− value represents rostral to injury, + value represents caudal to injury). […] N=6-8. Graphs show mean and SEM. […] Student's T-test.
Mice were sacrificed 7 weeks after injury by a lethal dose of Fatal plus (pentobarbital), then, transcardial perfusion was performed with PBS-Heparin (10,000 unit/L, 20 mL, 5 mL/min) followed by a 4% paraformaldehyde fixative solution (30 mL/mouse, at 5 mL/min). Right after perfusion, tissues were immersed in 4% PFA for 24 hours, transferred to 15% sucrose for 24 hours, then transferred to 30% sucrose for 24 hours before being embedded. Subsequently, the spinal cords (at injury site±1 mm) were cut into 25 μm-thick transverse sections using a freezing microtome (THERMO FISHER SCIENTIFIC® (laboratory reagents), Microm HM550). For immunohistochemistry (IHC), the spinal cord tissue sections were placed in a blocking solution (5% BSA, 0.4% Triton X-100, PBS) for 1 hour at room temperature. This was followed by overnight incubation with primary antibodies at room temperature. The tissue sections were subsequently washed 3 times with 0.4% Triton X-100-PBS, followed by 1 hour incubation at room temperature with the appropriate secondary antibodies (1:500, INVITROGEN™ (laboratory reagents) ALEXA FLUOR® (fluorescent dyes) Plus series). The primary antibodies included biotinylated NeuN (EMD MILLIPORE® (pharmaceuticals and chemicals), MAB377B, 1:500), rat GFAP (FISHER SCIENTIFIC® (laboratory reagents), 130300, 1:500), rabbit Iba1 (FUJIFILM® (camera components) Wako Chemicals, 019-19741, 1:500), rat CD68 (BIO-RAD®, (electrophoresis and chromatography materials) MCA1957, 1:500), goat SOX9 (R&D SYSTEMS® (biological reagents), AF3075, 1:500), and rabbit anti-5-HT (ImmunoStar, 20080, 1:500). Sections were stained with DAPI (1:5000, Millipore Sigma) to visualize the nucleus. The images were acquired using VS120 Virtual Slide Microscope (Olympus) and Axio Observer 7 (ZEISS® (optical products)) and analyzed with QuPath 0.4.3. The contour (polygonal) tool in the Zen 3.2 (Carl Zeiss AG, Jena, Germany) software was used to trace and measure lesion and cavity size. The lesion size was measured by tracing the glial scar border labeled with GFAP surrounding a DAPI^+ inner region. Cavity size was measured by measuring the region within the spinal cord without any visible nuclei yet surrounded by GFAP labeled glial scar. Three spinal cord sections per animal were imaged and analyzed. The 3 sections included the section containing the largest lesion size along with sections 300 μm rostral and caudal. Images were quantified using QuPath software. Eight boxes with a width of 200 μm were drawn both rostral and caudal of the injury epicenter. A contour polygon was made around the spinal cord in each of the sixteen boxes. Fluorescent intensity and cell counting was conducted using automated QuPath software. Histological analysis on liver tissue was conducted by sectioning the left lobe of the liver into 8 μm-thick transverse sections. […] Collagen accumulation was quantified using automated QuPath software to determine the extent of fibrosis.

C-DIRG-C BODIPY® (fluorescent dye) [5c(i)]
increase in neurite outgrowth [1]: 42%
increase in neuron survival [1]: 94%
number of SOX9′ cells ([2]; around the injury site): reduced
prevalence of CD68+ cells ([2]; around the injury site): significantly reduced
CD68 immunoreactivity ([2]; at the injury site): significantly reduced
serotonergic (5-HT) axon immunoreactivity ([2]; caudal to the injury site): increased
IBA1 immunoreactivity ([2]; spinal cord): reduced
